As usually defined, the IC50 is the concentration needed to halve the response being measured.

Values joined by “and” are separate entries in the source; they are usually repeats but may differ in a detail not shown here. Equal values may be shown once. Read-outs that look alike come from different tables or passages of the source.

The values that follow come from publication PMC7069944, “Amino acid levels determine metabolism and CYP450 function of hepatocytes and hepatoma cell lines” (Nature Communications, 2020).

For one series, the system named is HLCs. Briefly: Single-exposure toxicity, Hoechst/DRAQ7 live cell number, HLCs.
Another series relates to Rat hepatocytes. The arrangement: method as in ref 17 (a number printed in a supplementary file, which may have a reference list of its own: not looked up in the article's list). Particulars: 24h, MTT; cited from earlier work.
Another series relates to Cryopreserved PHH. More on the design: method as in ref 16 (a number printed in a supplementary file, which may have a reference list of its own: not looked up in the article's list). Particulars: 48h, ATP; cited from earlier work.
The subject of series [1] is HC6X in the BJ1-iPSC background. As to the kind of experiment: Single-exposure toxicity, Hoechst/DRAQ7 live cell number, HC6X (BJ1-iPSC). The note with it: Homo sapiens.
Description: (§1) PSCs were differentiated in a 384-well format. Cells were treated with 14 different concentrations of compounds in 6 repeats. As a negative control, 41 wells were left untreated. HepG2 were seeded at 40,000 cells per well. For control conditions, HepG2 were exposed after 2 days of culture. […] Cells were fixed with 4% PFA. Imaging was done using an Operetta High-Content Imaging System (Perkin Elmer) and image analysis was performed using Harmony software (Perkin Elmer). […] As a positive control, 1 donor of PHHs was seeded at 10,000 cells per well. Drugs were administrated after 8 h of attachment.
For another series, the system named is PHH. More on the design: method as in ref 15 (a number printed in a supplementary file, which may have a reference list of its own: not looked up in the article's list). The note with it: 24h, ALT release; cited from earlier work.
Another series concerns HepG2. As to the kind of experiment: Single-exposure toxicity, Hoechst/DRAQ7 live cell number, HepG2. Particulars: for IC50: Homo sapiens.
The next series relates to PHHs. Briefly: Single-exposure toxicity, Hoechst/DRAQ7 live cell number, PHH 12 h. Particulars: Homo sapiens, read-out: IC50 single exposure, Mean.
In series [2] the test system is cells cultured in AAGLY medium. Briefly: Single-exposure toxicity, summary value of this study (Boon et al). Particulars: Homo sapiens, single 24 h exposure. Format: cell-based. As for the experimental part: To evaluate the ability to predict hepatotoxicity, we adapted the differentiation assays to a 384-well format. […] As a readout, we evaluated cell viability by resazurin conversion and correlated the results to therapeutic doses (Cmax values).
PSCs were differentiated in a 384-well format. […] As a negative control, 41 wells were left untreated. HepG2 were seeded at 40,000 cells per well. […] Cells were fixed with 4% PFA. […] Drugs were administrated after 8 h of attachment.

In series [3] the test system is Co-culture of endothelial cells and mouse hepatocytes. The arrangement: method as in ref 12 (a number printed in a supplementary file, which may have a reference list of its own: not looked up in the article's list). Particulars: 36h, Cell count; cited from earlier work.
The test system of another series is Spheroid of PHHs. The arrangement: method as in ref 3 (a number printed in a supplementary file, which may have a reference list of its own: not looked up in the article's list). Particulars: 48h, ATP; cited from earlier work.
Series [4] has as its system HC6X in the H9-ESC background. Briefly: Single-exposure toxicity, Hoechst/DRAQ7 live cell number, HC6X (H9-ESC). Particulars: for IC50: Homo sapiens.
Description: as §1
The test system of series [5] is Co-culture of PHHs and fibroblasts. The arrangement: method as in ref 4 (a number printed in a supplementary file, which may have a reference list of its own: not looked up in the article's list). Particulars: 24h, ATP; cited from earlier work.
The test system of series [6] is CYP3A4. Briefly: qRT-PCR CYP3A4 expression in HepG2. Type of series: cell-based, human. The protocol: AA supplementation was accomplished through the addition of MEM Non-Essential Amino Acids Solution (100 × ) and MEM Amino Acids Solution (50 × ) (Thermo Scientific) to the culture medium. For AA1, AA2, and AA3 medium, we added respectively 2 ml, 8 ml, and 16 ml of non-essential AA solution and 1 ml, 4 ml, and 8 ml of essential AA solution per 100 ml of LDM, with or without glucose. Culture medium was then made PH neutral through the addition of NaOH. […] PSC derived HLCs were differentiated in LDM until D12. AA supplementation (AA1, AA2 and AA3) was performed from day 12 until day 20, 30 or 40 of differentiation. […] HepG2, HUH7.5, Hep3B, HHL5, and HEK293 cells were maintained in DMEM supplemented with 10% fetal bovine serum as shown in Supplementary Table 4. AA supplementation consisted of addition of 16 ml of non-essential AA mix and 8 ml of essential AA mix per 100 ml of medium and a further addition of 20 g/l of any of the single AAs. […] PHHs were maintained in a medium composition that was based on WE as detailed in ref. [67].
RNA extraction was performed using the GenElute Mammalian Total RNA Miniprep Kit (Sigma-Aldrich). Then, genomic DNA was eliminated using the On-Column DNase I Digestion kit (Sigma-Aldrich). Last, 1 µg of RNA was transcribed to cDNA using the Superscript III First-Strand synthesis (Invitrogen). Gene expression analysis was performed using the Platinum SYBR green qPCR supermix-UDG kit (Invitrogen) in a ViiA 7 Real-Time PCR instrument (Thermo Scientific, Waltham, MA). The sequences of all used qRT-PCR primers are listed in Supplementary Table 6. Of these, ribosomal protein L19 (RPL19) was used as a housekeeping gene for normalization.
On the technique in general: Real-time PCR tracks product formation cycle by cycle.

The subject of series [7] is CYP3A4. Briefly: qRT-PCR CYP3A4 expression in HLCs. The note with it: HLCs in AA3 medium with or without 2% of the single amino acid or mix; Figure 4B. Type of series: cell-based, human. As for the experimental part: AA supplementation was accomplished through the addition of MEM Non-Essential Amino Acids Solution (100 × ) and MEM Amino Acids Solution (50 × ) (Thermo Scientific) to the culture medium. For AA1, AA2, and AA3 medium, we added respectively 2 ml, 8 ml, and 16 ml of non-essential AA solution and 1 ml, 4 ml, and 8 ml of essential AA solution per 100 ml of LDM, with or without glucose. Culture medium was then made PH neutral through the addition of NaOH. […] PSC derived HLCs were differentiated in LDM until D12. AA supplementation (AA1, AA2 and AA3) was performed from day 12 until day 20, 30 or 40 of differentiation. […] HepG2, HUH7.5, Hep3B, HHL5, and HEK293 cells were maintained in DMEM supplemented with 10% fetal bovine serum as shown in Supplementary Table 4. AA supplementation consisted of addition of 16 ml of non-essential AA mix and 8 ml of essential AA mix per 100 ml of medium and a further addition of 20 g/l of any of the single AAs. Hepatoma cell lines were plated in normal culture medium, with addition of AA3 + 20 g/l AA once cells reached 60% confluency, and this for 3 or 7 additional days of culture. PHHs were maintained in a medium composition that was based on WE as detailed in ref. [67].
RNA extraction was performed using the GenElute Mammalian Total RNA Miniprep Kit (Sigma-Aldrich). Then, genomic DNA was eliminated using the On-Column DNase I Digestion kit (Sigma-Aldrich). […]

Series [8] deals with CYP3A4. Particulars: HepG2 in AA3+GLY medium with rapamycin. The protocol:
Protein amount was measured using a pierce BCA protein assay kit (Thermo Scientific).

As for `CC(=O)Nc1ccc(O)cc1` [APAP, acetaminophen], the “IC50 single exposure, Mean” value in the series with HLCs (H9 HLC AAGLY D40) was “No toxicity”; in the series with HLCs (H9 HLC LDM D40) it was “No toxicity”; in the series on HepG2 (HepG2 CTL D7), “no toxicity”. Further, the “toxicity after single administration” value (in the series on HLCs (HLC cultured in basal medium); with HepG2 (HepG2 cultured in basal medium); in series [4] (HC6X cultured in basal medium)) was “no toxicity” in each case. Moreover, the half-maximal inhibitory concentration (IC50) is 7.6 mM in the series with Rat hepatocytes; over 25 mM in the series on Cryopreserved PHH; 12 mM in series [1] (read-out: IC50 single exposure, Mean, BJ1 HC6X AAGLY D40); 8.66 mM in series [1] (read-out: IC50 single exposure, Mean, BJ1 HC6X AAGLY D50); about 10 mM in the series on PHH; 11.9 mM in the series on HepG2 (HepG2, read-out: IC50 single exposure, Mean, HepG2 AAGLY D30). The IC50 with HepG2 (HepG2, read-out: IC50 single exposure, Mean, HepG2 AAGLY D40) is 12 mM; in the series with PHHs, 13.3 mM; in [2], 10 mM; in [3], 7 mM; in the series on Spheroid of PHHs, 10 mM; in series [4] (read-out: IC50 single exposure, Mean, H9 HC6X AAGLY D40), 12.1 mM. The IC50 was 9.91 mM in series [4] (read-out: IC50 single exposure, Mean, H9 HC6X AAGLY D50) and 5.5 mM in [5].
Turning to `CC(C)[C@H](N)C(=O)O` [VAL, valine], the “Relative CYP3A4 expression” value in the series on CYP3A4 [6] (single amino acid supplementation, relative to CTL (CTL values equal HepG2 D7 CTL)) was 39.34 and 55.9446 and 51.9815. The “relative CYP3A4 expression (compared to LDM 2% DMSO D20)” value with CYP3A4 [7] is 50.8533 and 59.0748 and 76.4937.
As to `CO[C@H]1C[C@@H]2CC[C@@H](C)[C@@](O)(O2)C(=O)C(=O)N2CCCC[C@H]2C(=O)O[C@H]([C@H](C)C[C@@H]2CC[C@@H](O)[C@H](OC)C2)CC(=O)[C@H](C)/C=C(\C)[C@@H](O)[C@@H](OC)C(=O)[C@H](C)C[C@H](C)/C=C/C=C/C=C/1C` [rapamycin], the “effect on AA-mediated induction of CYP3A4” value with CYP3A4 [8] is listed as “blocked the induction of CYP3A4”. Besides, the “Relative CYP3A4 expression” value in the series on CYP3A4 [6] (HepG2 AAGLY D30 with RAPA) was 1.244 and 1.301 and 1.514.
